Species: Rattus norvegicus
Assay: DrugMatrix - Regimen: Daily Repeat
Type: toxicity, organism-based, Sprague-Dawley
Parameters: regimen Daily Repeat, gender Male, age 6-8 weeks
Details: in vivo, po, route oral GAVAGE, […]; for ABSOLUTE BASOPHIL / ABSOLUTE EOSINOPHIL / ABSOLUTE LYMPHOCYTE / ABSOLUTE MONOCYTE / ABSOLUTE SEGMENTED NEUTROPHIL / BASOPHIL / EOSINOPHIL / ERYTHROCYTE COUNT / HEMATOCRIT / HEMOGLOBIN / LEUKOCYTE COUNT / LYMPHOCYTE / MEAN CORPUSCULAR HEMOGLOBIN / MEAN CORPUSCULAR HEMOGLOBIN CONCENTRATION / MEAN CORPUSCULAR VOLUME / MONOCYTE / NEUTROPHIL / NUCLEATED RED BLOOD CELLS / PLATELET COUNT: tissue Blood; for ALANINE AMINOTRANSFERASE / ALBUMIN / ALKALINE PHOSPHATASE / ASPARTATE AMINOTRANSFERASE / BLOOD UREA NITROGEN / CARBON DIOXIDE / CHLORIDE / CHOLESTEROL / CREATINE PHOSPHOKINASE / CREATININE / GLUCOSE / LACTATE DEHYDROGENASE / LIPASE / PHOSPHORUS / SODIUM / TOTAL BILIRUBIN / TOTAL PROTEIN / URIC ACID: tissue Plasma
[1] = 0 mg/kg, 72 h, dose level Control, time 3 day
[2] = 0 mg/kg, 120 h, dose level Control, time 5 day
[3] = 450 mg/kg, 72 h, dose level Low, time 3 day

CC[C@H](C)C(=O)O[C@H]1C[C@@H](C)C=C2C=C[C@H](C)[C@H](CC[C@@H]3C[C@@H](O)CC(=O)O3)[C@H]21 [LOVASTATIN]
ABSOLUTE BASOPHIL [1]: 0 CELLS/uL
ABSOLUTE EOSINOPHIL [1]: 52.33 CELLS/uL
ABSOLUTE LYMPHOCYTE [1]: 9105.33 CELLS/uL
ABSOLUTE MONOCYTE [1]: 155.67 CELLS/uL
ABSOLUTE SEGMENTED NEUTROPHIL [1]: 1020 CELLS/uL
BASOPHIL [1]: 0%
EOSINOPHIL [1]: 0.33%
ERYTHROCYTE COUNT [1]: 5.03 x10E6/uL
HEMATOCRIT [1]: 31.63%
HEMOGLOBIN [1]: 12.37 G/DL
LEUKOCYTE COUNT [1]: 10.33 x10E3/uL
LYMPHOCYTE [1]: 87%
MEAN CORPUSCULAR HEMOGLOBIN [1]: 24.57 pg
MEAN CORPUSCULAR HEMOGLOBIN CONCENTRATION [1]: 39.07 G/DL
MEAN CORPUSCULAR VOLUME [1]: 62.93 fL
MONOCYTE [1]: 1.33%
NEUTROPHIL [1]: 11.33%
NUCLEATED RED BLOOD CELLS [1]: 0 /100WBC
PLATELET COUNT [1]: 896 x10E3/uL
ALANINE AMINOTRANSFERASE [1]: 75.33 u/L
ALBUMIN [1]: 3.77 G/DL
ALKALINE PHOSPHATASE [1]: 378.67 u/L
ASPARTATE AMINOTRANSFERASE [1]: 101.33 u/L
BLOOD UREA NITROGEN [1]: 11.33 mg/dL
CARBON DIOXIDE [1]: 25 mmol/L
CHLORIDE [1]: 99 MEQ/L
CHOLESTEROL [1]: 66 mg/dL
CREATINE PHOSPHOKINASE [1]: 277 u/L
CREATININE [1]: 0.33 mg/dL
GLUCOSE [1]: 198.33 mg/dL
LACTATE DEHYDROGENASE [1]: 140.33 u/L
LIPASE [1]: 11.33 u/L
PHOSPHORUS [1]: 11.83 mg/dL
SODIUM [1]: 141.03 MEQ/L
TOTAL BILIRUBIN [1]: 0.2 mg/dL
TOTAL PROTEIN [1]: 5.47 G/DL
URIC ACID [1]: 0.93 mg/dL
ABSOLUTE BASOPHIL [2]: 0 CELLS/uL
ABSOLUTE EOSINOPHIL [2]: 0 CELLS/uL
ABSOLUTE LYMPHOCYTE [2]: 8734 CELLS/uL
ABSOLUTE MONOCYTE [2]: 98.67 CELLS/uL
ABSOLUTE SEGMENTED NEUTROPHIL [2]: 1034 CELLS/uL
BASOPHIL [2]: 0%
EOSINOPHIL [2]: 0%
ERYTHROCYTE COUNT [2]: 5.19 x10E6/uL
HEMATOCRIT [2]: 33.2%
HEMOGLOBIN [2]: 12.93 G/DL
LEUKOCYTE COUNT [2]: 9.87 x10E3/uL
LYMPHOCYTE [2]: 87%
MEAN CORPUSCULAR HEMOGLOBIN [2]: 25 pg
MEAN CORPUSCULAR HEMOGLOBIN CONCENTRATION [2]: 39.03 G/DL
MEAN CORPUSCULAR VOLUME [2]: 63.93 fL
MONOCYTE [2]: 1%
NEUTROPHIL [2]: 12%
NUCLEATED RED BLOOD CELLS [2]: 0 /100WBC
PLATELET COUNT [2]: 1190 x10E3/uL
ALANINE AMINOTRANSFERASE [2]: 75.67 u/L
ALBUMIN [2]: 4 G/DL
ALKALINE PHOSPHATASE [2]: 384.33 u/L
ASPARTATE AMINOTRANSFERASE [2]: 89.67 u/L
BLOOD UREA NITROGEN [2]: 13 mg/dL
CARBON DIOXIDE [2]: 32.67 mmol/L
CHLORIDE [2]: 103 MEQ/L
CHOLESTEROL [2]: 79.67 mg/dL
CREATINE PHOSPHOKINASE [2]: 199.33 u/L
CREATININE [2]: 0.29 mg/dL
GLUCOSE [2]: 161.33 mg/dL
LACTATE DEHYDROGENASE [2]: 92.33 u/L
LIPASE [2]: 11.67 u/L
PHOSPHORUS [2]: 10.8 mg/dL
SODIUM [2]: 145.3 MEQ/L
TOTAL BILIRUBIN [2]: 0.17 mg/dL
TOTAL PROTEIN [2]: 5.7 G/DL
URIC ACID [2]: 0.63 mg/dL
ABSOLUTE BASOPHIL [3]: 0 CELLS/uL
ABSOLUTE EOSINOPHIL [3]: 0 CELLS/uL
ABSOLUTE LYMPHOCYTE [3]: 6372 CELLS/uL
ABSOLUTE MONOCYTE [3]: 86.67 CELLS/uL
ABSOLUTE SEGMENTED NEUTROPHIL [3]: 1174.67 CELLS/uL
BASOPHIL [3]: 0%
EOSINOPHIL [3]: 0%
ERYTHROCYTE COUNT [3]: 5.39 x10E6/uL
HEMATOCRIT [3]: 33.63%
HEMOGLOBIN [3]: 13.47 G/DL
LEUKOCYTE COUNT [3]: 7.63 x10E3/uL
LYMPHOCYTE [3]: 82.67%
MEAN CORPUSCULAR HEMOGLOBIN [3]: 25 pg
MEAN CORPUSCULAR HEMOGLOBIN CONCENTRATION [3]: 40.07 G/DL
MEAN CORPUSCULAR VOLUME [3]: 62.43 fL
MONOCYTE [3]: 1.33%
NEUTROPHIL [3]: 16%
NUCLEATED RED BLOOD CELLS [3]: 0 /100WBC
PLATELET COUNT [3]: 1202.67 x10E3/uL
ALANINE AMINOTRANSFERASE [3]: 138.33 u/L
ALBUMIN [3]: 4.13 G/DL
ALKALINE PHOSPHATASE [3]: 450.67 u/L
ASPARTATE AMINOTRANSFERASE [3]: 224.33 u/L
BLOOD UREA NITROGEN [3]: 11 mg/dL
CARBON DIOXIDE [3]: 27.67 mmol/L
CHLORIDE [3]: 97.33 MEQ/L
CHOLESTEROL [3]: 35 mg/dL
CREATINE PHOSPHOKINASE [3]: 505 u/L
CREATININE [3]: 0.16 mg/dL
GLUCOSE [3]: 146 mg/dL
LACTATE DEHYDROGENASE [3]: 223.33 u/L
LIPASE [3]: 10.67 u/L
PHOSPHORUS [3]: 10.17 mg/dL
SODIUM [3]: 140.53 MEQ/L
TOTAL BILIRUBIN [3]: 0.1 mg/dL
TOTAL PROTEIN [3]: 5.37 G/DL
URIC ACID [3]: 0.5 mg/dL
